Data: US7276347B2 (priority 2004, dated 2007)

Key:
[1] = test system: antibodies to HCY Oxime-BTG (example 4a); format: binding, mice
[2] = test system: monoclonal antibody to HCY Oxime-KLH (example 4b); format: binding, mice

N[C@@H](Cc1ccc(N(CCCl)CCCl)cc1)C(=O)O [Melphalan, melphalan]
% Cross-Reactivity [1]: <0.3% | IC 50 [1]: >10,000 ng/ml | % Cross-Reactivity [2]: <0.1% | IC 50 [2]: >100,000 ng/ml

O=P1(N(CCCl)CCCl)NCCCO1 (stereo not drawn) [cyclophosphamide]
% Cross-Reactivity [1]: <0.3% | IC 50 [1]: >10,000 ng/ml | % Cross-Reactivity [2]: <0.1% | IC 50 [2]: >100,000 ng/ml

O=C(O)CCCc1ccc(N(CCCl)CCCl)cc1 [Chlorambucil, chlorambucil]
% Cross-Reactivity [1]: <0.3% | IC 50 [1]: >10,000 ng/ml | % Cross-Reactivity [2]: <0.1% | IC 50 [2]: >100,000 ng/ml
